From patent US11434195B2, “Compositions and methods for treatment of central nervous system tumors” (UNIVERSITY OF FLORIDA RESEARCH FOUNDATION, INC., priority 2017, dated 2022) come the findings set out here.

Entries after “also recorded” stand apart in the source; their conditions may differ. Where a name gives a salt, the structure may show the parent alone. Read-outs that look alike come from different tables or passages of the source.

The test system of data set [1] is CA1 cancer stem cell-derived carcinoid bodies ('carcinospheres'). Kind of data set: Carcinoid sphere model of tumor-initiating glioblastoma stem cells. Type of data set: cell-based. As to conditions: Homo sapiens. On the procedure:
Human glioblastoma cell lines CA1 (also sometimes referred to as BT73) and L1 are cells are available from the Florida Center for Brain Tumor Research University of Florida Biorepository. Glioma cells (for example CA1, U87MG or L1), are suspended by trituration as single cells and plated at a density of about 25,000 cells/mL in low adhesion plates in Neurobasal® medium containing 1% methylcellulose and growth factors. The cultures are treated with single or repeated doses of AIPs (ranging from 0.1 to 20 […]) or vehicle (control) and maintained for 24 hours, 72 hours and 7 days. The number and size of ‘carcinoid’ spheres are quantitated by inverted phase contrast microscopy, and spheres collected for analysis for determination of survival and growth/proliferation.
This suppression of tumor-initiating glioblastoma multiforme stem/progenitor cells was determined using a ‘carcinoid sphere’ model in serum- and in anchorage-free media. The ability to block cancer stem cell activation and to destroy them is very useful for strategies to prevent glioblastoma recurrence. Here, AIPs blocked completely the activation of tumor-initiating CA1 cells and formation of carcinospheres at ≥2 μM concentrations. […] FIG. 9B is a set of representative photographs of the cells treated as indicated.
With respect to methods, generation of carcinoid spheres from GBM was performed essentially as described previously (Cao et al., Composite fatty acid ether amides suppress growth of liver cancer cells in vitro and in an in vivo allograft mouse model, Cell. Oncol. 36(3):247-257, 2013 and Reinartz et al., Functional Subclone Profiling for Prediction of Treatment-Induced Intratumor Population Shifts and Discovery of Rational Drug Combinations in Human Glioblastoma, Clinical Cancer Research: an official journal of the American Association for Cancer Research 23(2):562-574, 2017). […] The number and size of spheres were quantitated by inverted phase contrast microscopy. […]

Data set [2] relates to adherent CA1 human glioblastoma multiforme cells. Kind of data set: Viability/proliferation of adherent CA1 glioblastoma cells (MTS). Type of data set: cell-based. As to conditions: for IC50: Homo sapiens. The procedure: In addition, glioma cells were cultured (adherent) in DMEM/F12 medium with 10% FBS to attain about 70% confluency. AIP (ranging from about 1 μM to about 100 μM) was added once or twice as above for 24 hours, 48 hours, or 72 hours and analyzed at these time points for proliferation, cell death and markers.
Ales were screened in patient glioblastoma cells CA1 cells proliferating in adherent cultures. Briefly, cells were cultured in DMEM/F12 medium with 10% FBS to attain about 70% confluency. AIP1, AIP2, or vehicle (control) were added for 24 hours and analyzed for proliferation and survival. […] Cell viability/proliferation was measured by MTS added for additional 2-3 hours (FIG. 10A). Microphotographs of the cells were taken with Hoffman modulation-equipped phase-contrast microscope (FIG. 10B; x20 magnification is shown).

The test system of data set [3] is primary human hepatocytes. The experiment in a line: Survival of primary human hepatocytes. Format: cell-based. As to conditions: up to 50 μM. The procedure: The cell integrity and structural architecture were not altered following incubation with AIPs for a week (see FIG. 11B).
Data set [4] in a line: Tissue accumulation after intraperitoneal injection. To be noted: mice, hydrochloride. Type of data set: in vivo. On the procedure: To assure brain bioavailability of the inventive compounds, time-dependent brain, liver and […] AIP accumulation was measured after intraperitoneal injection of 2.0 mg AIP2. Mice were sacrificed at specific times following injection. Tissues (blood, brain and liver) were taken, and the lipids extracted, loaded on silica-gel column, washed with diethyl ether, and eluted with 10% ethyl acetate in hexane. The eluates were further purified using gradient HPLC on a C8 reverse phase column and the AIP-corresponding fraction was collected and quantitatively analyzed by […], coupled with electrospray ionization-mass-spectroscopy using internal AIP standard.

Data set [5] relates to AKT. The experiment in a line: AKT kinase activity / basal AKT phosphorylation in HUH-7 cells. Format: cell-based, human. As to conditions: proliferating HUH-7 cells, 10 μM.

Take `CCCCCCCC/C=C\CCCCCCCCOCC(O)CNC(C)C` (stereo not shown) [AIP2, Octadecenyloxy-3-isopropylamine-propan-2-ol hydrochloride]: the IC50 worked out at 1100 nM in data set [1] (read-out: IC50, block of development of brain tumor-initiating stem cells); 1100 nM in data set [1] (read-out: IC50, formation and growth of CA1 cancer stem cell-derived carcinoid bodies); 1100 nM in data set [1] (read-out: IC50, inhibition of brain tumor-initiating cancer stem cells); 6900 nM in data set [2] (read-out: IC50, growth and survival of human malignant glioblastoma cells (CA1)); 7100 nM in data set [2] (read-out: IC50, proliferating glioblastoma cells). In addition, the “Effect on adherent CA1 glioblastoma cells” value in data set [2] (20 μM, hydrochloride) is listed as “complete shutdown of metabolic activity; also recorded: destroyed all cancer cells”. The “Survival of primary human hepatocytes” value in data set [3] is “did not reduce survival”. Also, the Blood-brain barrier penetration result in data set [4] (24 hours after intraperitoneal injection) was “able to cross the blood-brain barrier; also recorded: significant blood-brain-barrier (BBB) penetration”. Further, the “Tissue accumulation of non-metabolized compound” value in data set [4] (intraperitoneal injection of 2 mg, up to 24 hours) was “did accumulate in brain tissue; also recorded: accumulated in brain and liver in a time-dependent fashion”. The “Basal AKT phosphorylation” value in data set [5] is “blocked basal AKT phosphorylation”.

One may read the IC50 as the point on the concentration scale where inhibition reaches its midpoint.
